Assay results reported in paper PMC11913368, “Antilipase activities of cultivated peppermint and rosemary essential oils: in vitro and in silico studies” (Turkish Journal of Biology, 2025).
Converted amounts (≈) assume the structure as drawn.

Test system: T1, Candida rugosa lipase (CRL)
T1 construct: gene LIP1
Test: p-nitrophenyl laurate hydrolysis, absorbance at […] nm
Type: biochemical, Diutina rugosa
Conditions: substrate p-NPL, pH 7, 37 °C, 15 min preincubation with enzyme; reference compound

Structure (SMILES)	IC50 value [µg/mL]
CCCCCCCCCCC[C@@H](C[C@@H]1OC(=O)[C@H]1CCCCCC)OC(=O)[C@H](CC(C)C)NC=O [Orlistat]	60 ± 0 (≈ 121 µM)
O=c1c(O)c(-c2ccc(O)c(O)c2)oc2cc(O)cc(O)c12 [Quercetin]	320 ± 4 (≈ 1060 µM)
